This is an account of results in patent publication US20240245682A1, “ALPHA-V-BETA-8 INTEGRIN INHIBITORS AND USES THEREOF” (Pliant Therapeutics, Inc., priority 2022, published 2024).

One experiment relates to TKCC-05 tumors. The experiment in a line: Orthotopic TKCC-05 (PDX-05) PDX model of PDAC (Example B12). Format: in vivo, NSG mice. The conditions noted are these: FIG. 26B. How it is done: (§1) Table B-9 depicts the study design to determine the efficacy of selective αvβ1/αvβ8 SMI in the orthotopic ECM-high PDX models of PDAC. Table B-10 depicts the study design for the TKCC-10 PDX model.
Table B-11 depicts the study design for the TKCC-05 model.
TKCC-05 cells were inoculated in the pancreas of […] mice and were allowed to grow into tumors for 1 week. The mice were then treated according to schema outlined in […], and FIG. 26A, which depicts a schematic diagram of the treatment regimen in the TKCC-05 PDAC PDX model for this study. FIG. 26B depicts a graph associated with the quantification of tumor weights in mice treated with Compound 39, Reference compound B, and ADWA-11 Ab for the study associated with Example B12. FIG. 26C depicts a graph associated with the quantification of tumor weights in mice treated with G/A, Compound 39+G/A, Reference compound B+G/A, and ADWA-11+G/A for the study associated with Example B12. P values by one-way ANOVA.

The target in a further experiment is human integrin αVβ8 (Homo sapiens, UniProt P06756+P26012). Briefly: AlphaScreen proximity-based integrin binding assay with TGF-b1 LAP. The following applies: values given as ranges. The method in brief: (§2)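 Purified human integrin incubated with compound, TGF-b1 LAP, biotinylated anti-LAP antibody and acceptor beads for 2 h, then streptavidin donor beads 30 min, room temperature, in 50 mM Tris-HCl pH 7.5, 0.1% BSA, 1 mM CaCl2/MgCl2. AlphaScreen signal (680 nm excitation, 520-620 nm emission); IC50 by four-parameter fit.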
human integrin αVβ8, sequence (P06756 31-992 limits assumed): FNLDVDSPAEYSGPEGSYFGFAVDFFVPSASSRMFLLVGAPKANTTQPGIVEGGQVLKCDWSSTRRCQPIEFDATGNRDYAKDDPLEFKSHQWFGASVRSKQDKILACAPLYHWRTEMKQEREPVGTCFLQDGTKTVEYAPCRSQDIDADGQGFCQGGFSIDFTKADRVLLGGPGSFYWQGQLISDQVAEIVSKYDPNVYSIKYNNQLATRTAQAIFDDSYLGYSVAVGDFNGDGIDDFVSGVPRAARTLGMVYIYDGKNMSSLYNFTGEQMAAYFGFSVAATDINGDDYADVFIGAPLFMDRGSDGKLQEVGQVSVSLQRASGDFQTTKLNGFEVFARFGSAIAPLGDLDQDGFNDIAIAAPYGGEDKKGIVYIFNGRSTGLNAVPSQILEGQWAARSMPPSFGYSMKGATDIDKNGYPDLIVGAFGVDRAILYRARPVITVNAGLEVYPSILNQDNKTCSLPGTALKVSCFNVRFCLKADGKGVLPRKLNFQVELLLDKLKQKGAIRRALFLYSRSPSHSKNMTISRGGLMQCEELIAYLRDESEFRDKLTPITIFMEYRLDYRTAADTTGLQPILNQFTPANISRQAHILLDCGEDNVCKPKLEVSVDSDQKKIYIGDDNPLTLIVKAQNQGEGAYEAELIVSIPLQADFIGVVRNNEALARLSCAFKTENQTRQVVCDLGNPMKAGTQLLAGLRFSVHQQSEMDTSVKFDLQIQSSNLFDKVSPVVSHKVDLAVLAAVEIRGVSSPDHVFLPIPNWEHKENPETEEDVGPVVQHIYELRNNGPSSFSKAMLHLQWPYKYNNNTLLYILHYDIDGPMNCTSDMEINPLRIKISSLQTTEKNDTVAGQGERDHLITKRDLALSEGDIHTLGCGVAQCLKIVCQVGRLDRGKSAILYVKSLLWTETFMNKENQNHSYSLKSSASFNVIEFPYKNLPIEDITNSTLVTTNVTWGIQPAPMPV
human integrin αVβ8, sequence (P26012 43-684 limits assumed): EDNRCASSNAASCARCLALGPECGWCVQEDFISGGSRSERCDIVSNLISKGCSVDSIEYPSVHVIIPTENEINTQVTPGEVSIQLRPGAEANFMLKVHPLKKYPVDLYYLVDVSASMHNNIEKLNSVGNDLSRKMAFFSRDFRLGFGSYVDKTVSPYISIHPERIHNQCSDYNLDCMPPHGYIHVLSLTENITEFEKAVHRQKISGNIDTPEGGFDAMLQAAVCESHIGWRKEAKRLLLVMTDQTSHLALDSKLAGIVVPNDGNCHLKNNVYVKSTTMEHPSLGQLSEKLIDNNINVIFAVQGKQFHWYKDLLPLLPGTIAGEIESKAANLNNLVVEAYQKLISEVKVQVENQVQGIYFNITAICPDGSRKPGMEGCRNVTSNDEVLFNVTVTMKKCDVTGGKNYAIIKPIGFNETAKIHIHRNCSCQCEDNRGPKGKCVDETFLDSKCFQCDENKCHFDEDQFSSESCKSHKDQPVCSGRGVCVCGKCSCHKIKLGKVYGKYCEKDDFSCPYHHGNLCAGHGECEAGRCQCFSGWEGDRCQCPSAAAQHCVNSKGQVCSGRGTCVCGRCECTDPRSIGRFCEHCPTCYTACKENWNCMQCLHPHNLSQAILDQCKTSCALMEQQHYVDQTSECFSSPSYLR
(Bead proximity is the source of the signal in Alpha formats.)

In a further experiment the target is human integrin αVβ1 (Homo sapiens, UniProt P05556+P06756). The experiment is described as above. The conditions noted are these: values given as ranges. The method in brief: as §2
human integrin αVβ1, sequence (P06756 31-992 limits assumed): as the sequence (P06756 31-992 limits assumed) above
human integrin αVβ1, sequence (P05556 21-728 limits assumed): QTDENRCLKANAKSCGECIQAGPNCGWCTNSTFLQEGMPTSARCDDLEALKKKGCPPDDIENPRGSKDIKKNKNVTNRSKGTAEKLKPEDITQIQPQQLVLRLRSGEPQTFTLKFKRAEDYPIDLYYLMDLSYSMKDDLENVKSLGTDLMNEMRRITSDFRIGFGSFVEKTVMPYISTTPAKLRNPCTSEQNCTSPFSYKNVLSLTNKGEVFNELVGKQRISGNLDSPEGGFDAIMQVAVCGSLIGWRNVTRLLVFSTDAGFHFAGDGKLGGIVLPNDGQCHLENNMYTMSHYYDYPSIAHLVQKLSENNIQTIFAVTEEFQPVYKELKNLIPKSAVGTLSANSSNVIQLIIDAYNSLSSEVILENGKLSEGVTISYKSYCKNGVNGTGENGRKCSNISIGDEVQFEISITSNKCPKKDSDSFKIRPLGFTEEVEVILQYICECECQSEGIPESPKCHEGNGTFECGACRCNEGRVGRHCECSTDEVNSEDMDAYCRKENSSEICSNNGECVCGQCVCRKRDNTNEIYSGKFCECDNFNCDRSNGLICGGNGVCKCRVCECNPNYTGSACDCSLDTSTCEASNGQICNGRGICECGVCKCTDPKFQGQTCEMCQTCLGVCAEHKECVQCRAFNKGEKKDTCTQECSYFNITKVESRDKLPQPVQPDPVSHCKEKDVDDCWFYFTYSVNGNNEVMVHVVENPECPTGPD
The target of a further experiment is human integrin αVβ6 (Homo sapiens, UniProt P06756+P18564). The description is as above. The following applies: values given as ranges. The method in brief: as §2
human integrin αVβ6, sequence (P06756 31-992 limits assumed): as the sequence (P06756 31-992 limits assumed) above
human integrin αVβ6, sequence (P18564 22-707 limits assumed): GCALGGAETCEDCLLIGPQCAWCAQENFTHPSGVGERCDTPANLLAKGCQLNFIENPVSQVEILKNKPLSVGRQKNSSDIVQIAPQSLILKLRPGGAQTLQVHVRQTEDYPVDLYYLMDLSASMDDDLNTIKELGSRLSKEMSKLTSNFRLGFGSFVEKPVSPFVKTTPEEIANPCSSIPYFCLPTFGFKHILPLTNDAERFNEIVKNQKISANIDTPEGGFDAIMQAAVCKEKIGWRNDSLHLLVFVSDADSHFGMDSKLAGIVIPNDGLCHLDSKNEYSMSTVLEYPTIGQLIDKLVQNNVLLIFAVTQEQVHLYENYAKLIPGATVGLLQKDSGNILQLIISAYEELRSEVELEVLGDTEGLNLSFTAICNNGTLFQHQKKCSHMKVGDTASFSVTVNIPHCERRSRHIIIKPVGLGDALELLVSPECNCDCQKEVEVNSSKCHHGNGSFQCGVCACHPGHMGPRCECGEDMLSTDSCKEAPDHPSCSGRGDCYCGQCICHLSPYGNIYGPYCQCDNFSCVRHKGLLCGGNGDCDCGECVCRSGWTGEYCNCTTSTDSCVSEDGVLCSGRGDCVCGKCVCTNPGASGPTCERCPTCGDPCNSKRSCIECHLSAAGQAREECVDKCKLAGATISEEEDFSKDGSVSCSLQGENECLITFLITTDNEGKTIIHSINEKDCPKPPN
Another experiment deals with TKCC-08 tumors. The experiment in a line: Subcutaneous FNX-resistant TKCC-08 PDX model of PDAC (Example B12). Format: in vivo, NSG mice. The protocol:
as §1
Table B-12 depicts the study design for the TKCC-08 model.
FNX is a standard of care chemotherapy regimen for pancreatic ductal adenocarcinoma. However, the clinical response to FNX remains bleak. To assess if Compound 39 augmented the therapeutic benefit of FNX, Compound 39 was tested alone and in combination with FNX in the TKCC-08 model, which is made FNX-resistant by continuous exposure to the FNX.

The test system of another experiment is Pan02 tumors. The experiment in a line: Pan02 (pancreatic) syngeneic tumor model (Example B6). Format: in vivo, C57BL/6 mice. The protocol: The therapeutic impact of Compound 39 of the examples in combination with anti PD-1 was studied for several […] mouse models, as shown in Table B-3. For each model, four dosing regimens were studied, using a group size of 10 mice per dosing regimen per model, and a total of 40 mice per model.
Mice were shaved and tumor cells as indicated in Table B-3 were subcutaneously implanted in a 100 μl cell suspension that was subcutaneously injected into the front/rear flank of each mouse (as indicated in Table B-3).
There was no dosing holiday. Dietary supplements were uniform for all animals in the same group.
Animals were monitored weekly for changes in tumor volume. Tumors were measured at least once a week using calipers. Tumor volume was calculated using the equation: (longest diameter*shortest diameter^2)/2. […]
Tumor tissues (50 to 80 mg) were homogenized using metal beads in pre-chilled RINO screw cap tubes, using lysis matrix (MP Lysing Matrix S [⅛″], 2 mL Tube MP Biomedical Cat #116925100) on MP Fast Prep 24 instrument. […] Hybridized reactions were read on nCounter MAX (Nanostring), and data were analyzed using nCounter software.
Table B-5 lists the catalog numbers of the antibodies used in the immunohistochemical (IHC) studies. Quantification of staining was done using the HALO software package (Indica Labs, Albaquerque, NM).

Values joined by “and” are separate entries in the source; they are usually repeats but may differ in a detail not shown here. Equal entries are not always repeated.

For orientation: IC50 means the concentration needed to halve the response being measured. In the case of `Cc1ncnc(Cl)c1C1(C(=O)N[C@@H](CCOCCCCc2ccc3c(n2)NCCC3)C(=O)O)CC1` [Compound 39, N-(1-(4-chloro-6-methylpyrimidin-5-yl)cyclopropane-1-carbonyl)-O-(4-(5,6,7,8-tetrahydro-1,8-naphthyridin-2-yl)butyl)-L-homoserine], the mean tumor weight in the experiment with TKCC-05 tumors (30 days treatment) is 0.23 ± 0.08 g and 0.228 ± 0.06 g; in the experiment with TKCC-08 tumors (FNX-resistant subcutaneous tumors, Compound 39 300 mg/kg BID oral, FNX i.v. weekly, FIG. 27B), 0.4 ± 0.15 g. Moreover, the “tumor weight / tumor growth” value in the experiment on TKCC-05 tumors (in words, 26C) is “significantly blocks tumor growth”. The IC50 at human integrin αVβ8 was under 0.05 µM; on human integrin αVβ1 it was under 0.05 µM; at human integrin αVβ6, at least 0.5 µM. In the experiment on TKCC-08 tumors (in words, FIG. 27A, 27B), the “tumor growth and tumor weight” value was “significantly reduced the tumor growth and the tumor weight”. The tumor growth result in the experiment with Pan02 tumors (Pan02, FIG. 16A, 41) was “inhibited Pan02 tumor growth”. Moreover, the “CD8^+ T cell infiltration” value with Pan02 tumors (in words, FIG. 16B, 43) is listed as “increased T-cell infiltration”.
